Where two headings read alike, the source gives them in different places. One block for each compound: values may come before it.
How the values were obtained:
[1] = Metabolites in 24-hour urine of rats given Maillard reaction products orally (HPLC); details: rat
Method: Then, 100 μl of acetonitrile/phosphate buffer (7/93) adjusted to pH 2.0 was injected into the HPLC apparatus through the injection microsyringe. The apparatus and the experimental conditions were the same as those described above.
The specification of the HPLC apparatus and experimental conditions were the same as described above.

[2] = system: male Wistar rats; test: Blood free-fatty acid level time course after 5-MPCA; format: in vivo, rat; details: 50 mg/kg, 1, 2, 4 and 6 hours after administration
Method: Further, using four-week-old male Wistar rats, the following experiment was performed. A control group was administered with physiological saline. A test group was administered with a solution of 50 mg/kg of 5-methylpyrazine-2-carboxylic acid (5-MPCA) dissolved in physiological saline. Immediately before starting the administration and 1, 2, 4, and 6 hours after the administration, each 6 rats were decapitated and blood was collected from each rat. According to a conventional method, plasma was separated from each sample blood and blood levels of free-fatty acid (FFA) were determined using a kit for determining free-fatty acid level. […] That is, FIG. 10 is a diagram showing the effect of 5-methylpyrazinecarboxylic acid on the blood free-fatty acid level of the rats.

[3] = system: absorption of glucose in digestive tracts; details: animal test; cited from earlier work
[4] = system: male Wistar rats
[5] = system: male Wistar rats; details: oral, 10 mg/kg nicotinic acid alone
[6] = Water solubility as described for addition to liquid foods; format: physicochemical
Method: The case where the above-mentioned group A to C compounds are added to any liquid foods and beverages (coffee, refreshing beverages, etc.) or hydrophilic solutions (for example, aqueous solutions and alcohol solutions) is described hereinbelow. […] Since the group B compounds are water-soluble but have strong volatility, it is recommended that simple dissolution thereof may be performed after concentration of a coffee extract and freeze-drying, if any. […] Since the group C compounds are water-soluble but have weak volatility, they may be simply dissolved similarly to the group B compounds.

[7] = system: insulin sensitivity; details: rat, in vivo; cited from earlier work

Compound: Cc1cnc(C)cn1 [2,5-dimethylpyrazine]
conversion by metabolism in liver ([1]; 50 mg/kg, 24-hour urine): converted into a group C compound

Compound: O=C(/C=C/c1ccc(O)c(O)c1)O[C@@H]1C[C@](O)(C(=O)O)C[C@@H](O)[C@H]1O [Chlorogenic acid, chlorogenic acid]
speed of absorption of glucose in digestive tracts [3]: reducing a speed of absorption of glucose in digestive tracts

Compound: O=Cc1ccc[nH]1 [pyrrole-2-aldehyde]
recovery in urine (in words) ([1]; 50 mg/kg oral, urine collected after 24 hours): almost quantitative

Compound: chlorogenic lactone
insulin sensitivity [7]: Enhancement of insulin sensitivity

Second part, led by results:

rebound phenomenon of blood free-fatty acid level [2]: no rebound phenomenon
Compound: Cc1cnc(C(=O)O)cn1 [5-MPCA, 5-methyl-pyrazine-2-carboxylic acid]

time after which rebound phenomenon was observed ([4]; 10 to 20 mg/kg): 2 h | time after which rebound phenomenon was observed ([4]; oral, 5 mg/kg): 1 h | time after which rebound phenomenon was observed ([4]; oral, 10 mg/kg): 2 h | time after which rebound phenomenon was observed ([4]; oral, 50 mg/kg): 4 h | rebound phenomenon after 1 hour of the administration [5]: present in a mixed manner
Compound: O=C(O)c1cccnc1 [nicotinic acid]
blood free-fatty acid level after 30 minutes of the administration ([4]; oral, any dose of from 5 mg/kg to 50 mg/kg): ≤ 0.5 mEq/l | rebound phenomenon after 2 hours of the administration [5]: all the animals showed the rebound phenomenon

water solubility [6]: hardly water-soluble
Compound: Cc1nc(C)c(C)nc1C [tetramethylpyrazine]
